Assay results: patent US6770649B2, “1-[1-(hetero)aryl-1-perhydroxyalkylmethyl]-piperazine compounds, process for their preparation and pharmaceutical compositions containing them” (Solvay Pharmaceuticals GmbH, priority 2001, dated 2004)
Like-named read-outs stand apart in the source and are kept apart here.

Columns and labels:
[1] = target: T1, human NK-2 receptor (Homo sapiens, UniProt P21452); experiment: Binding power of the test substances to NK-2 receptors in vitro ([3H]-SR 48968 displacement, CHO cell membranes); conditions: displacement of [3H]-SR 48968, 90 min incubation, average of at least three measurements, 10^-6 to 10^-10 mol/l, read-out: pKi, affinity to human NK-2 receptors (converted)
T1 construct: expressed in transfected cells; host or cells: CHO cells (membrane preparation)
T1 sequence (P21452 1-398): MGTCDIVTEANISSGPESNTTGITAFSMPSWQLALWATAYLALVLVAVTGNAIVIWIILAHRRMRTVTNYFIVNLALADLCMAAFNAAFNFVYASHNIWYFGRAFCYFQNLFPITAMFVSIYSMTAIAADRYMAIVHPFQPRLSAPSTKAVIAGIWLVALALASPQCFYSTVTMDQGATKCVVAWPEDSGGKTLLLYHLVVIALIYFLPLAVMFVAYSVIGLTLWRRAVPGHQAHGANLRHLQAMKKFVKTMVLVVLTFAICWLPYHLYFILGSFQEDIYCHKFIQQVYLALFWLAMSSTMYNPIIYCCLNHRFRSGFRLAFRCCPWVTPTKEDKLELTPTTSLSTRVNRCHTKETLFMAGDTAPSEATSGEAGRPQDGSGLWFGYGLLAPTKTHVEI
Protocol: 1. Determination of the Binding Power of the Test Substances to NK-2 Receptors in vitro
The affinity of the test substances to human NK-2 receptors was measured in vitro. The ability of the test substances to displace the selective NK-2 receptor antagonist SR 48968 (=saredutant) used as reference ligand from its corresponding bond was determined.
The receptor binding studies were carried out with radioactively marked [^3H]-SR 48968 (from Amersham) as ligand. For the binding test, different samples of a membrane preparation of CHO cells (=[…]), which express the human NK-2 receptor (for preparation, see N. P. Gerard et al., Journal of Biological Chemistry 265/33 (1990) 20455-20462), were incubated for 90 minutes (=min.) with a solution of the marked ligand, with the incubation mixtures containing no test substance or additions of different concentrations of test substance. Then in each case the membrane-bound ligands in the samples were separated from free ligands by filtration. The fraction remaining in the filter was washed several times with buffer solution, before its radioactivity was measured using a liquid scintillation counter. That concentration which effects half-maximum displacement of the bound reference ligand was determined as IC50 of the respective test substance. The inhibition constant (Ki value) of the test substance was calculated from the respective IC50 value, and was stated as the negative logarithmised value thereof (pKi).
For the compounds of Examples 1 to 39, the affinity to human NK-2 receptors was determined in each case by at least three measurements of the test substances in concentration series of 10^−6 to 10^−10 mol/l. If several measurements were performed, the average thereof was listed each time.

[2] = target: T2, NK-2 receptors (Cavia porcellus, UniProt Q64077); experiment: NK-2-receptor-antagonistic effectiveness in vivo in anaesthetised guinea pigs (NKA test stimulus); design: species or system guinea pig; conditions: for ED50: guinea pig
T2 construct: the NK-2 receptors present in the gall-bladder preparations; from tissue; host or cells: Pirbright-White guinea pig: isolated gall-bladder (A2); anaesthetised whole animal (A3)
T2 sequence (Q64077 1-402): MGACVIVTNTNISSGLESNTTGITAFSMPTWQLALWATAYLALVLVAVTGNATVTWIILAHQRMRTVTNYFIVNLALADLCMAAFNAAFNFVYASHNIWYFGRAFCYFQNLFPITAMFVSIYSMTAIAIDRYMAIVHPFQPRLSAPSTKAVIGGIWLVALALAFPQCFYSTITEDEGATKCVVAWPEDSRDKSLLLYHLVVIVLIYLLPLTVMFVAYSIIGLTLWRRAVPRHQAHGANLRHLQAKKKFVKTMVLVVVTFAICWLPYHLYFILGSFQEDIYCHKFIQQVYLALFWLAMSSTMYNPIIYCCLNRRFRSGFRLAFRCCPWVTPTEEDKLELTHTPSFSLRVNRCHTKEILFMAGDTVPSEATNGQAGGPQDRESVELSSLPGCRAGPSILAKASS
From the text: 3. Determination of the NK-2-receptor-antagonistic Effectiveness of the Test Substances in vivo
The NK-2- and NK-1-antagonistic activities of the test substances were investigated in anaesthetised guinea pigs in each case after intravenous (=i.v.) and oral (=p.o.) administration in vivio. With the present test model it is possible to detect both NK-2-antagonistic effects in three different organ systems (respiratory tracts, colon and circulation) and NK-1-antagonistic effects (rapid drop in blood pressure) in an animal simultaneously.
Pirbright-White guinea pigs of a body weight of 500-700 g were anaesthetised with ketamine/xylazine (67/13 mg/kg subcutaneously, initial dose, further doses administered as required). The animals were provided with an intravenous catheter in order to administer the substance and an intra-arterial catheter to measure the blood pressure. The animals were artificially ventilated via a tracheal cannula and the respiratory pressure was recorded by means of a pressure transducer. A balloon was introduced into the distal colon of the animals for manometric recording of colon motility by means of a pressure transducer. Blood pressure, heart rate, respiratory pressure and colonic pressure were measured continuously for each animal and plotted on a recorder and by means of a digital data-processing system. Neurokinin A (=NKA; 200 pmol/animal) was administered i.v. as a bolus as a test stimulus to stimulate the NK-1- and the NK-2 receptors. An addition of NKA of this type results in a great increase in respiratory pressure (bronchoconstriction) and colonic pressure, and in a biphasic drop in blood pressure. The first phase of hypotension (=phase of maximum hypotension within the first minute after administration of NKA) is mediated via NK-1 receptors, since they can be blocked completely by specific NK-1 receptor antagonists. The second phase of delayed hypotension (=phase of maximum hypotension after 2-5 min.) on the other hand is mediated via NK-2 receptors, since they can be blocked by specific NK-2 receptor antagonists. The doses of the test substances are given as ED50 values which each result in a response to the NKA test stimulus which is reduced to 50% of the initial value, as characteristic variables for the individual measurement parameters bronchoconstriction, colonic pressure and change in blood pressure mediated by NK-1 or NK-2.
The antagonistic effects of the test substances were first investigated in cumulative form, the time of the NKA test stimulus being 1 min. after the administration of the respective doses of the test substances had ended. These ED50 values obtained from cumulative dose effect curves are plotted in Table 2 below. In order additionally to detect the variation over time of the antagonistic effects of the test substances, the action of the NKA test stimulus was determined at different times (1, 30, 60, 90, 120, 150 and 180 min.) after administration of the test substances.

Row | Ki [1] [µM] | SMILES | further results
1 | ≤ 0.01 | CN(CC(CCN1CCN(C(c2ccsc2)[C@H](O)CO)CC1)c1ccc(Cl)c(Cl)c1)C(=O)c1ccccc1 (mixture of isomers) [Example 8] | 
2 | ≤ 0.01 | CN(CC(CCN1CCN(C(c2ccsc2)[C@@H](O)CO)CC1)c1ccc(Cl)c(Cl)c1)C(=O)c1ccccc1 (mixture of isomers) [Example 11] | 
3 | ≤ 0.01 | CN(CC(CCN1CCN(C(c2ccsc2)[C@H](O)[C@@H](O)CO)CC1)c1ccc(Cl)c(Cl)c1)C(=O)c1ccccc1 (mixture of isomers) [Example 16] | 
4 | ≤ 0.01 | CN(CC(CCN1CCN(C(c2cccs2)[C@@H](O)[C@H](O)[C@H](O)CO)CC1)c1ccc(Cl)c(Cl)c1)C(=O)c1ccccc1 (mixture of isomers) [Example 19] | 
5 | ≤ 0.01 | CN(CC(CCN1CCN(C(c2ccsc2)[C@@H](O)[C@H](O)[C@@H](O)[C@@H](O)CO)CC1)c1ccc(Cl)c(Cl)c1)C(=O)c1ccccc1 (mixture of isomers) [Example 20] | 
6 | ≤ 0.01 | CN(CC(CCN1CCN(C(c2ccsc2)[C@@H](O)[C@@H](O)[C@H](O)[C@H](O)CO)CC1)c1ccc(Cl)c(Cl)c1)C(=O)c1ccccc1 (mixture of isomers) [Example 21] | 
7 | ≤ 0.01 | CN(CC(CCN1CCN(C(c2ccsc2)[C@H](O)[C@@H](O)[C@H](O)[C@H](O)CO)CC1)c1ccc(Cl)c(Cl)c1)C(=O)c1ccccc1 (mixture of isomers) [Example 23] | 
8 | ≤ 0.01 | CN(CC(CCN1CCN(C(c2cccs2)[C@H](O)[C@@H](O)[C@H](O)CO)CC1)c1ccc(Cl)c(Cl)c1)C(=O)c1ccccc1 (mixture of isomers) [Example 24] | 
9 | ≤ 0.01 | CN(CC(CCN1CCN(C(c2ccccc2)[C@H](O)[C@@H](O)[C@H](O)CO)CC1)c1ccc(Cl)c(Cl)c1)C(=O)c1ccccc1 (mixture of isomers) [Example 25] | 
10 | ≤ 0.01 | CN(CC(CCN1CCN(C(c2ccsc2)[C@@H](O)[C@@H](O)[C@@H](O)CO)CC1)c1ccc(Cl)c(Cl)c1)C(=O)c1ccccc1 (mixture of isomers) [Example 27] | 
11 | ≤ 0.001 | CN(C[C@@H](CCN1CCN(C(c2ccco2)[C@H](O)CO)CC1)c1ccc(Cl)c(Cl)c1)C(=O)c1ccccc1 (stereo partly drawn) [Example 2, N-((2S)-2-(3,4-dichlorophenyl)-4-{4[(2S)-2,3-dihydroxy-1-(2-furyl)propyl]-1-piperazinyl}-butyl)-N-methylbenzamide] | 
12 | ≤ 0.001 | CN(C[C@@H](CCN1CCN(C(c2ccco2)[C@H]2COC(=O)O2)CC1)c1ccc(Cl)c(Cl)c1)C(=O)c1ccccc1 (stereo partly drawn) [Example 4, N-[((2S)-2-(3,4)-dichlorophenyl)-4-(4-{2-furyl[(4S)-2-oxo-1,3-dioxolan-4-yl]methyl}-1-piperazinyl)butyl]-N-methylbenzamide] | 
13 | ≤ 0.001 | CN(C[C@@H](CCN1CCN(C(c2ccsc2)[C@H](O)CO)CC1)c1ccc(Cl)c(Cl)c1)C(=O)c1ccccc1 (stereo partly drawn) [Example 5] | NK-2-receptor-antagonistic activity of colon motility, late drop in blood pressure and respiratory resistance (in words) ([2]; cumulative administration i.v., antagonism detected 1 min. after administration had ended): marked NK-2-receptor-antagonistic activity; ED50 ([2]; iv, cumulative dosing, NKA stimulus 1 min. after administration, NK-2-mediated late drop in blood pressure, read-out: ED50 Blood pressure, i.v. after 1 min. (cumulative)): 0.13 µmol/kg; ED50 ([2]; iv, cumulative dosing, NKA stimulus 1 min. after administration, respiratory resistance (bronchoconstriction), read-out: ED50 Respiratory resistance, i.v. after 1 min. (cumulative)): 0.106 µmol/kg; ED50 ([2]; iv, cumulative dosing, NKA stimulus (200 pmol/animal i.v.) 1 min. after administration, colonic pressure, read-out: ED50 Colonic pressure, i.v. after 1 min. (cumulative)): 0.041 µmol/kg; ED50 ([2]; iv, from AUC of antagonistic effect over 120 min after administration, colonic pressure, read-out: ED50 Colonic pressure, i.v. AUC over 120 min): 0.014 µmol/kg; ED50 ([2]; iv, from AUC over 120 min after administration, NK-2-mediated drop in blood pressure, read-out: ED50 Blood pressure, i.v. AUC over 120 min): 0.004 µmol/kg; ED50 ([2]; iv, from AUC over 120 min after administration, respiratory resistance, read-out: ED50 Respiratory resistance, i.v. AUC over 120 min): 0.008 µmol/kg; ED50 ([2]; po, from AUC over 180 min after administration, NK-2-mediated drop in blood pressure, read-out: ED50 Blood pressure, p.o. AUC over 180 min.): 7.6 µmol/kg; ED50 ([2]; po, from AUC over 180 min after administration, colonic pressure, read-out: ED50 Colonic pressure, p.o. AUC over 180 min.): 3.4 µmol/kg; ED50 ([2]; po, from AUC over 180 min after administration, respiratory resistance, read-out: ED50 Respiratory resistance, p.o. AUC over 180 min.): 2.7 µmol/kg
14 | ≤ 0.001 | CN(C[C@@H](CCN1CCN(C(c2ccoc2)[C@H](O)CO)CC1)c1ccc(Cl)c(Cl)c1)C(=O)c1ccccc1 (stereo partly drawn) [Example 6, N-((2S)-2-(3,4-dichlorophenyl)-4-{4[(2S)-2,3-dihydroxy-1-(3-furyl)propyl]-1-piperazinyl}-butyl)-N-methylbenzamide] | 
15 | ≤ 0.01 | CN(C[C@@H](CCN1CCN(C(c2ccco2)[C@H](O)[C@@H](O)[C@H](O)CO)CC1)c1ccc(Cl)c(Cl)c1)C(=O)c1ccccc1 (stereo partly drawn) [Example 10, N-((2S)-2-(3,4-dichlorophenyl)-4-{4[(2S,3R,4R)-2,3,4,5-tetrahydroxy-1-(2-furyl)pentyl]-1-piperazinyl}-butyl)-N-methylbenzamide] | 
16 | ≤ 0.01 | CN(C[C@@H](CCN1CCN(C(c2ccsc2)[C@@H](O)[C@H](O)[C@@H](O)CO)CC1)c1ccc(Cl)c(Cl)c1)C(=O)c1ccccc1 (stereo partly drawn) [Example 12, N-((2S)-2-(3,4-dichlorophenyl)-4-{4[(2R,3S,4S)-2,3,4,5-tetrahydroxy-1-(3-thienyl)pentyl]-1-piperazinyl}butyl)-N-methylbenzamide] | 
17 | ≤ 0.01 | CN(CC(CCN1CCN(C(c2ccsc2)C(O)CO)CC1)c1ccc(Cl)c(Cl)c1)C(=O)c1ccccc1 (stereo not drawn) [Example 18] | 
18 | ≤ 0.01 | CN(CC(CCN1CCN(C(c2cccs2)C(O)CO)CC1)c1ccc(Cl)c(Cl)c1)C(=O)c1ccccc1 (stereo not drawn) [Example 22] | 
19 | ≤ 0.01 | CN(CC(CCN1CCN(C(CO)c2ccsc2)CC1)c1ccc(Cl)c(Cl)c1)C(=O)c1ccccc1 (stereo not drawn) [Example 26] | 
20 | ≤ 0.001 | CN(C[C@@H](CCN1CCN(C(c2ccco2)[C@H]2COC(=S)O2)CC1)c1ccc(Cl)c(Cl)c1)C(=O)c1ccccc1 (stereo partly drawn) [Example 39] | 
